Source: PubChem BioAssay (NCI)
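A five-concentration, 48-hour dose response in 96-well plates underlies each endpoint, interpolated linearly between surrounding concentrations. GI50 is the concentration that inhibits growth by half. Definition used: TGI = concentration required for complete inhibition of growth.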

The compounds below were run on UACC-62 melanoma (assay: NCI anticancer screen, dose series, 48 h).

Row | SMILES | GI50 | TGI
1 | O=C(Nc1cccc(-n2cc(-c3ccncc3)c(-c3ccc(Cl)c(O)c3)n2)c1)c1ccc(N2CCOCC2)c(C(F)(F)F)c1 | 3.26 µM | 18.4 µM
2 | COc1cccc2c1ccc1nc3cccc(C(=O)N[C@H](C)CN(C)C)c3nc12 | 0.0447 µM | 0.198 µM
3 | COc1ccc(/C=C/C(=O)c2ccc(O)c(CN3CCN(c4cc5c(cc4F)c(=O)c(C(=O)O)cn5C4CC4)CC3)c2)cc1 | 1.32 µM | > 100 µM
4 | NC(=O)c1ccc(I)c(N=O)c1 | 40.5 µM | > 100 µM
5 | COc1ccc2c(=O)cc(-c3ccncc3)oc2c1OC |  | 32.3 µM
6 | CC(=O)C(=Cc1ccc(C=C(C(C)=O)C(C)=O)cc1)C(C)=O |  | 4.02 µM
7 | COC(=O)c1ccccc1OCc1cc(=O)oc2ccc(C)cc12 |  | > 66.6 µM
8 | COc1ccc(-c2nc(-c3ccccc3)c(-c3ccccc3)[nH]2)cc1OC1CCCC1 | > 100 µM | > 100 µM
9 | O=C(O)c1cc2ccc3ccccc3c2oc1=O |  | > 100 µM
10 | O=[N+]([O-])c1ccc2c(c1)Cc1cc(N=Cc3ccc4c(c3)OCO4)ccc1-2 |  | > 100 µM
11 | COC(=O)[C@@]12OC[C@]34[C@H]([C@@H](O)[C@@H]1O)[C@@]1(C)[C@H](O)C(=O)C=C(C)[C@@H]1C[C@H]3OC(=O)C(OC(C)=O)[C@@H]24 (stereo not given in full) | 0.0245 µM | 0.142 µM

The compounds below were run on BT-549 breast (assay: NCI anticancer screen, dose series, 48 h).

Row | SMILES | TGI | GI50
12 | COc1cc2ccccc2oc1=O | > 100 µM | 
13 | Nc1nc(N)c2nc(CNc3ccc(C(=O)NC(CC(=O)O)C(=O)O)cc3)cnc2n1 (stereo not given) | > 100 µM | 1.03 µM
14 | CC(=O)OC[C@]12CC[C@@H](C(=O)CBr)[C@@H]1[C@H]1CC[C@@H]3[C@@]4(C)CCCNC(C)(C)[C@@H]4CC[C@@]3(C)[C@]1(C)CC2 | 5.52 µM | 2.2 µM
15 | COc1cc2c3c(n(CCCCN)c(=O)c2cc1OC)-c1cc2c(cc1C3=O)OCO2 | 4.84 µM | 1.17 µM
16 | N#CCCN(CCCN(CCCN(C(=O)Nc1ccccc1)c1ccccc1)C(=O)Nc1ccccc1)C(=O)Nc1ccccc1 | > 100 µM | > 100 µM
17 | C=CCC1(O)c2ccccc2C(=O)c2c(NCCN(CC(=O)OCC)CC(=O)OCC)cccc21 (stereo not given) | > 100 µM | > 100 µM
18 | COc1cccc(-n2nc(C)c3c(N/N=C(\C)c4ccncc4)ncnc32)c1 | > 25 µM | > 21.9 µM
19 | NC(=O)c1ccccc1Nc1ccc2nnc(-c3ccncc3)n2n1 | 3.83 µM | 1.9 µM
20 | CCn1cnc(C[C@H](NC(=O)[C@@H](NC(=O)Nc2cc(C(F)(F)F)cc(C(F)(F)F)c2)C(C)C)C(=O)OC)c1 | 3.58 µM | 1.78 µM
21 | O=C(Nc1cccc(-n2cc(-c3ccncc3)c(-c3ccc(Cl)c(O)c3)n2)c1)c1ccc(N2CCOCC2)c(C(F)(F)F)c1 | > 50 µM | 19.4 µM
22 | COc1cccc2c1ccc1nc3cccc(C(=O)N[C@H](C)CN(C)C)c3nc12 | 2.93 µM | 0.795 µM
23 | COc1ccc(/C=C/C(=O)c2ccc(O)c(CN3CCN(c4cc5c(cc4F)c(=O)c(C(=O)O)cn5C4CC4)CC3)c2)cc1 | > 100 µM | 1.28 µM
24 | NC(=O)c1ccc(I)c(N=O)c1 | > 100 µM | 40.3 µM
25 | COc1ccc2c(=O)cc(-c3ccncc3)oc2c1OC | 98.4 µM | 
26 | CC(=O)C(=Cc1ccc(C=C(C(C)=O)C(C)=O)cc1)C(C)=O | 4.6 µM | 
27 | COC(=O)c1ccccc1OCc1cc(=O)oc2ccc(C)cc12 | > 100 µM | 
28 | COc1ccc(-c2nc(-c3ccccc3)c(-c3ccccc3)[nH]2)cc1OC1CCCC1 | > 100 µM | > 100 µM
29 | O=C(O)c1cc2ccc3ccccc3c2oc1=O | > 100 µM | 
30 | O=[N+]([O-])c1ccc2c(c1)Cc1cc(N=Cc3ccc4c(c3)OCO4)ccc1-2 | > 100 µM | 
31 | COC(=O)[C@@]12OC[C@]34[C@H]([C@@H](O)[C@@H]1O)[C@@]1(C)[C@H](O)C(=O)C=C(C)[C@@H]1C[C@H]3OC(=O)C(OC(C)=O)[C@@H]24 (stereo not given in full) | 0.0561 µM | 0.0182 µM

Each compound was assayed on IGROV1 ovarian (assay: NCI anticancer screen, dose series, 48 h).

Row | SMILES | TGI | GI50
32 | COc1cc2ccccc2oc1=O | > 100 µM | 
33 | Nc1nc(N)c2nc(CNc3ccc(C(=O)NC(CC(=O)O)C(=O)O)cc3)cnc2n1 (stereo not given) | > 100 µM | 0.631 µM
34 | CC(=O)OC[C@]12CC[C@@H](C(=O)CBr)[C@@H]1[C@H]1CC[C@@H]3[C@@]4(C)CCCNC(C)(C)[C@@H]4CC[C@@]3(C)[C@]1(C)CC2 | 3.76 µM | 1.83 µM
35 | COc1cc2c3c(n(CCCCN)c(=O)c2cc1OC)-c1cc2c(cc1C3=O)OCO2 | 5.08 µM | 1.14 µM
36 | N#CCCN(CCCN(CCCN(C(=O)Nc1ccccc1)c1ccccc1)C(=O)Nc1ccccc1)C(=O)Nc1ccccc1 | > 100 µM | 31.7 µM
37 | C=CCC1(O)c2ccccc2C(=O)c2c(NCCN(CC(=O)OCC)CC(=O)OCC)cccc21 (stereo not given) | > 100 µM | > 100 µM
38 | COc1cccc(-n2nc(C)c3c(N/N=C(\C)c4ccncc4)ncnc32)c1 | > 25 µM | > 25 µM
39 | NC(=O)c1ccccc1Nc1ccc2nnc(-c3ccncc3)n2n1 | 5.41 µM | 2.23 µM
40 | CCn1cnc(C[C@H](NC(=O)[C@@H](NC(=O)Nc2cc(C(F)(F)F)cc(C(F)(F)F)c2)C(C)C)C(=O)OC)c1 | 5.75 µM | 2.33 µM
41 | O=C(Nc1cccc(-n2cc(-c3ccncc3)c(-c3ccc(Cl)c(O)c3)n2)c1)c1ccc(N2CCOCC2)c(C(F)(F)F)c1 | > 50 µM | 9.42 µM
42 | COc1cccc2c1ccc1nc3cccc(C(=O)N[C@H](C)CN(C)C)c3nc12 | 11.9 µM | 0.0549 µM
43 | COc1ccc(/C=C/C(=O)c2ccc(O)c(CN3CCN(c4cc5c(cc4F)c(=O)c(C(=O)O)cn5C4CC4)CC3)c2)cc1 | > 100 µM | 1.27 µM
44 | NC(=O)c1ccc(I)c(N=O)c1 | 86.4 µM | 26.7 µM
45 | COc1ccc2c(=O)cc(-c3ccncc3)oc2c1OC | 78.1 µM | 
46 | CC(=O)C(=Cc1ccc(C=C(C(C)=O)C(C)=O)cc1)C(C)=O | 4.18 µM | 
47 | COC(=O)c1ccccc1OCc1cc(=O)oc2ccc(C)cc12 | > 100 µM | 
48 | COc1ccc(-c2nc(-c3ccccc3)c(-c3ccccc3)[nH]2)cc1OC1CCCC1 | > 100 µM | > 100 µM
49 | O=C(O)c1cc2ccc3ccccc3c2oc1=O | > 100 µM | 
50 | O=[N+]([O-])c1ccc2c(c1)Cc1cc(N=Cc3ccc4c(c3)OCO4)ccc1-2 | > 100 µM | 
51 | COC(=O)[C@@]12OC[C@]34[C@H]([C@@H](O)[C@@H]1O)[C@@]1(C)[C@H](O)C(=O)C=C(C)[C@@H]1C[C@H]3OC(=O)C(OC(C)=O)[C@@H]24 (stereo not given in full) | 0.134 µM | 0.0302 µM
